Literature values, collected in patent publication US7858126B2 (Trinity Laboratories Inc., priority 2006, dated 2010).

Experiments:
[1] = tested on: ornithine decarboxylase (ODC); settings: mice
skin papillomas = settings: mice, DMBA-initiated, TPA-promoted

Substance: santalol
- decrease of TPA-induced ODC activity [1]: 70%
- decrease of papilloma incidence (skin papillomas): 67%
- decrease of papilloma multiplicity (skin papillomas): 96%
